Data published in US10765751B2, “pH sensitive carrier and preparation method thereof, and pH sensitive drug and pH sensitive drug composition each containing the carrier, and method for treating or preventing diseases using the same” (TERUMO KABUSHIKI KAISHA, priority 2012, dated 2020).

Key:
RAW cells [1] = assay: Evaluation of cytosolic delivery where pH sensitive carrier and physiologically active substance were used independently; type: cell-based; conditions: 30 μg/mL peptide-FITC or OVA-FITC, carrier added separately (160 nmol pH sensitive compound, 100 nmol amphipathic substance); FIG. 22
Method: On the previous day, RAW cells were spread on a matsunami glass bottom dish and cultured with 10% FBS-containing MEM. After rinsing with PBS, MEM was added, followed by a one hour incubation. 1900 μL of MEM containing fluorescence-labeled peptide-FITC or fluorescence-labeled OVA-FITC at a concentration of 30 μg/mL was prepared and substituted with the culture medium. Moreover, a solution of 100 μL of a pH sensitive carrier was added, followed by 16 to 20 hours of incubation in the culture medium in such a state that both were mixed. It was already confirmed that the fluorescence-labeled peptide-FITC and fluorescence-labeled OVA-FITC were each not supported with the pH sensitive carrier in a mixed state with a pH sensitive carrier-containing solution. After rinsing with PBS and three hours post-incubation with 2 mL of fresh MEM, the cells were rinsed with PBS, followed by substitution with phenol red-free DMEM and observation through a fluorescence microscope. The culture was carried out by use of an incubator (MCO20AIC) set at 5% CO2 and 37° C. and the cells were observed through a fluorescence microscope (Axiovert 200M—soft: Axio vision 3.0—light source: Fluo Arc).

RAW cells [2] = assay: Cytosolic delivery of β-gal; type: cell-based; conditions: 16 to 20 hours incubation, three hours post-incubation; FIG. 21
Method: Using PBS passed through a 0.22 μm filter, there was prepared a 1.4 mg/mL of β-gal solution. […] On the day before charge, the RAW cells were spread on a matsunami glass bottom dish and cultured, and the cells were rinsed with PBS immediately before charge. The culture was carried out by use of an incubator (MCO 20 AIC) set at 5% CO2 and 37° C. and a 10% FBS-containing MEM medium. After substitution with 1900 μL of a fresh 10% FBS-containing MEM medium, 100 μL of the respective samples was charged, followed by 16 to 20 hours incubation. The cells were rinsed at least three times with PBS. Thereafter, 2 mL of a fresh 10% FBS-containing MEM medium was added, following by three hours post-incubation. The cells were rinsed with PBS, followed by staining the cells with use of a β-Galactosidase Staining Kit (purchased from Takara Bio Inc.), and observing the cells through a microscope (Axiovert 200M—soft: Axio vision 3.0). The staining was carried out in accordance with the recommendation of the kit.

| Substance | localisation of fluorescence-labeled peptide-FITC or OVA-FITC in cells (cytosolic delivery) (RAW cells [1]) | staining of cells by β-gal enzymatic activity (cytosolic delivery) (RAW cells [2]) |
| --- | --- | --- |
| fluorescence-labeled OVA-FITC: FITC fluorescence-labeled OVA model protein | remained in the endosome | – |
| β-D-galactosidase [β-gal alone] | – | not stained |
